{"source": "patent US6686443", "conditions": "disulfide bond", "note": "Like-named read-outs stand apart in the source and are kept apart here."}
{"molecule": "somatostatin", "values": [{"measurement": "ring closure, conversion", "setting": "38-membered ring", "result": 99, "unit": "%"}]}
{"molecule": "CC(=O)N[C@H]1CSSC[C@@H](C(N)=O)NC(=O)[C@@H]2CCCN2C(=O)CNC1=O", "note": "[Ac-Cys-Gly-Pro-Cys-NH2]", "values": [{"measurement": "ring closure, conversion", "setting": "from Ac-Cys-Gly-Pro-Cys-NH2, 14-membered ring, trans-[Pt(en)2Cl2]2+", "result": 100, "unit": "%"}]}
{"molecule": "CC(=O)N[C@@H](CCCCN)C(=O)N1CCC[C@H]1C(=O)N[C@H](C(=O)N[C@H]1CSSC[C@@H](C(=O)N[C@@H](CCCNC(=N)N)C(=O)N[C@@H](CCCCN)C(=O)N[C@H](C(N)=O)[C@@H](C)O)NC(=O)[C@H](Cc2ccccc2)NC(=O)[C@@H]2CCCN2C1=O)[C@@H](C)O", "note": "[Ac-Lys-Pro-Thr-Cys-Pro-Phe-Cys-Arg-Lys-Thr-NH2]", "values": [{"measurement": "ring closure, conversion", "setting": "from Ac-Lys-Pro-Thr-Cys-Pro-Phe-Cys-Arg-Lys-Thr-NH2, 14-membered ring, trans-[Pt(en)2Cl2]2+", "result": 100, "unit": "%"}]}
{"molecule": "CC(=O)N[C@H](C(=O)N[C@H]1CSSC[C@@H](C(=O)N[C@@H](CCCNC(=N)N)C(N)=O)NC(=O)[C@H](Cc2ccccc2)NC(=O)[C@@H]2CCCN2C1=O)[C@@H](C)O", "note": "[Ac-Thr-Cys-Pro-Phe-Cys-Arg-NH2]", "values": [{"measurement": "ring closure, conversion", "setting": "from Ac-Thr-Cys-Pro-Phe-Cys-Arg-NH2, 14-membered ring, trans-[Pt(en)2Cl2]2+", "result": 100, "unit": "%"}]}
{"molecule": "NC(=O)CC[C@@H]1NC(=O)[C@H](Cc2ccccc2)NC(=O)[C@H](Cc2ccc(O)cc2)NC(=O)[C@@H](N)CSSC[C@@H](C(=O)O)NC(=O)[C@H](CC(N)=O)NC1=O", "note": "[pressinoic acid]", "values": [{"measurement": "ring closure, conversion", "setting": "from H-Cys-Tyr-Phe-Gln-Asn-Cys-OH, 20-membered ring, trans-[Pt(en)2Cl2]2+", "result": 100, "unit": "%"}]}
{"molecule": "H-Cys-Phe-Gly-Ser-Arg-Ile-Asp-Arg-Ile-Gly-Ala-Gln-Ser-Gly-Met-Gly-Cys-Gly-Arg-Phe-OH", "values": [{"measurement": "ring closure, conversion", "setting": "the molecule shown is the open-chain precursor, 53-membered ring, trans-[Pt(en)2Cl2]2+, phosphate buffer pH 6.0, 0.04 mM", "result": 100, "unit": "%"}]}
{"molecule": "CC[C@H](C)[C@@H]1NC(=O)[C@H](Cc2ccc(O)cc2)NC(=O)[C@@H](N)CSSC[C@@H](C(=O)N2CCC[C@H]2C(=O)N[C@@H](CC(C)C)C(=O)NCC(N)=O)NC(=O)[C@H](CC(N)=O)NC(=O)[C@H](CCC(N)=O)NC1=O", "note": "[oxytocin]", "values": [{"measurement": "ring closure, conversion", "setting": "from H-Cys-Tyr-Ile-Gln-Asn-Cys-Pro-Leu-Gly-NH2, 20-membered ring, trans-[Pt(en)2Cl2]2+", "result": 98, "unit": "%"}]}
{"molecule": "COc1ccc(C[C@@H]2NC(=O)CC(C)(C)SSC[C@@H](C(=O)N3CCC[C@H]3C(=O)N[C@@H](CCCNC(=N)N)C(=O)NCC(N)=O)NC(=O)[C@H](CC(N)=O)NC(=O)[C@H](CCC(N)=O)NC(=O)[C@H](Cc3ccccc3)NC2=O)cc1", "values": [{"measurement": "ring closure, conversion", "setting": "from HSC(Me)2CH2CO-Tyr(Me)-Phe-Gln-Asn-Cys-Pro-Arg-Gly-NH2, 20-membered ring, trans-[Pt(en)2Cl2]2+", "result": 97, "unit": "%"}]}
{"molecule": "CC[C@H](C)[C@H](NC(=O)[C@H](CC(=O)O)NC(=O)[C@@H](NC(C)=O)[C@@H](C)O)C(=O)N[C@H](C(=O)N[C@H]1CSSC[C@@H](C(=O)N[C@@H](Cc2c[nH]cn2)C(=O)N[C@@H](CCCCN)C(=O)N[C@@H](CC(C)C)C(=O)N[C@@H](Cc2c[nH]cn2)C(N)=O)NC(=O)[C@H](Cc2ccc(O)cc2)NC(=O)CNC1=O)[C@@H](C)O", "note": "[Ac-Thr-Asp-Ile-Thr-Cys-Gly-Tyr-Cys-His-Lys-Leu-His-NH2]", "values": [{"measurement": "ring closure, conversion", "setting": "from Ac-Thr-Asp-Ile-Thr-Cys-Gly-Tyr-Cys-His-Lys-Leu-His-NH2, 14-membered ring, trans-[Pt(en)2Cl2]2+", "result": 100, "unit": "%"}]}
{"molecule": "CSCC[C@H](NC(=O)[C@H](CC(C)C)NC(=O)[C@@H]1CCCN1C(=O)[C@H](Cc1ccc(O)cc1)NC(=O)[C@H](Cc1ccccc1)NC(=O)[C@@H]1CSSC[C@H](NC(=O)[C@@H]2CCCN2C(=O)[C@@H](N)CCCNC(=N)N)C(=O)N2CCC[C@H]2C(=O)N[C@@H](CCC(N)=O)C(=O)N1)C(N)=O", "note": "[H-Arg-Pro-Cys-Pro-Gln-Cys-Phe-Tyr-Pro-Leu-Met-NH2]", "values": [{"measurement": "ring closure, conversion", "setting": "from H-Arg-Pro-Cys-Pro-Gln-Cys-Phe-Tyr-Pro-Leu-Met-NH2, 14-membered ring", "result": 99, "unit": "%"}]}
{"molecule": "CC(=O)N[C@H]1CSSC[C@@H](C(N)=O)NC(=O)[C@H](C)NC(=O)[C@H](C)NC(=O)[C@H](Cc2ccccc2)NC(=O)[C@@H]2CCCN2C1=O", "note": "[Ac-Cys-Pro-Phe-Ala-Ala-Cys-NH2]", "values": [{"measurement": "ring closure, conversion", "setting": "from Ac-Cys-Pro-Phe-Ala-Ala-Cys-NH2, 20-membered ring, trans-[Pt(en)2Cl2]2+", "result": 100, "unit": "%"}]}
{"molecule": "CC(=O)N1CCC[C@H]1C(=O)N[C@H](C(=O)N[C@H]1CSSC[C@@H](C(=O)N[C@@H](CCCNC(=N)N)C(=O)N[C@@H](CCCCN)C(N)=O)NC(=O)[C@H](Cc2ccccc2)NC(=O)[C@@H]2CCCN2C1=O)[C@@H](C)O", "note": "[Ac-Pro-Thr-Cys-Pro-Phe-Cys-Arg-Lys-NH2]", "values": [{"measurement": "ring closure, conversion", "setting": "from Ac-Pro-Thr-Cys-Pro-Phe-Cys-Arg-Lys-NH2, 14-membered ring, trans-[Pt(en)2Cl2]2+", "result": 100, "unit": "%"}]}
{"molecule": "CC(=O)N[C@H]1CSSC[C@@H](C(N)=O)NC(=O)[C@H](Cc2ccccc2)NC(=O)[C@@H]2CCCN2C1=O", "note": "[Ac-Cys-Pro-Phe-Cys-NH2]", "values": [{"measurement": "ring closure, conversion", "setting": "from Ac-Cys-Pro-Phe-Cys-NH2, 14-membered ring, trans-[Pt(en)2Cl2]2+", "result": 97, "unit": "%"}]}
{"molecule": "N=C(N)NCCC[C@H](NC(=O)[C@@H]1CCCN1C(=O)[C@@H]1CSSC[C@H](N)C(=O)N[C@@H](Cc2ccc(O)cc2)C(=O)N[C@@H](Cc2ccccc2)C(=O)N[C@@H](CCC(N)=O)C(=O)N[C@@H](CC(N)=O)C(=O)N1)C(=O)NCC(N)=O", "note": "[arginine-vasopressin]", "values": [{"measurement": "ring closure, conversion", "setting": "from H-Cys-Tyr-Phe-Gln-Asn-Cys-Pro-Arg-Gly-NH2, 20-membered ring, trans-[Pt(en)2Cl2]2+", "result": 100, "unit": "%"}]}
